We go through 9 compounds from US20250206732A1, “COMPOUNDS AND METHODS FOR THE TARGETED DEGRADATION OF KRAS” (Arvinas Operations, Inc., priority 2022, published 2025).

The target in the assay is T1, AsPC-1 HiBiT-KRASG12D (Homo sapiens, UniProt P01116, G12D).
T1 construct: insert the HiBiT tag onto the N-terminus of one or more of the endogenous KRAS alleles; endogenous in cells; host or cells: AsPC-1 (ATCC CRL-1682), CRISPR-Cas9 knock-in clone, one tagged allele
The experiment in a line: HiBiT degradation assay (G12D), AsPC-1 HiBiT-KRASG12D cells. In kind it is cell-based. Particulars: 24 hours treatment; for Dmax: ASPC1, AsPC-1 HiBiT-KRASG12D cells, maximum degradation observed; for DC50: AsPC-1 HiBiT-KRASG12D cells, HiBiT luminescence. In outline: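 AsPC-1 cells carried a CRISPR knock-in of an N-terminal HiBiT tag on endogenous KRAS G12D. After 24 h compound treatment at 37 °C (triplicate), viability was read by alamar blue (4 h, fluorescence, normalized to DMSO). HiBiT-KRAS levels were then measured by Nano-Glo HiBiT lytic luminescence after 45 min at room temperature.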
Background: HiBiT is a short tag that completes a luciferase, so light tracks the accessible tagged protein.

Each structure is given as a SMILES string.

T1 sequence (P01116 1-188 isoform P01116-2 G12D): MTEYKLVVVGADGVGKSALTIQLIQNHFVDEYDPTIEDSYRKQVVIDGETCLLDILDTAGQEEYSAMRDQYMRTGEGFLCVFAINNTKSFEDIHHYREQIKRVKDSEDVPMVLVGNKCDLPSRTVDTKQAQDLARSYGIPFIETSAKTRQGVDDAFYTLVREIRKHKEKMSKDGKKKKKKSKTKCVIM

The Dmax is the largest share of the target that was removed. Low values mean shallow degradation, high ones deep degradation. One may read the DC50 as the concentration giving 50% degradation. The compound `CCc1cccc2cc(O)cc(-c3ncc4c(N5CC6CCC(C5)N6)nc(OC[C@]56CCCN5C[C@H](Oc5cc([C@H](C(=O)N7C[C@H](O)C[C@H]7C(=O)N[C@@H](C)c7ccc(-c8scnc8C)cc7)C(C)C)on5)CC6)nc4c3F)c12` [Compound 318, (2S,4R)-1-[(2R)-2-[3-[[(6R,8aR)-8a-[[4-(3,8-diazabicyclo[3.2.1]octan-3-yl)-7-(8-ethyl-3-hydroxy-1-naphthyl)-8-fluoro-pyrido[4,3-d]pyrimidin-2-yl]oxymethyl]-2,3,5,6,7,8-hexahydro-1H-indolizin-6-yl]oxy]isoxazol-5-yl]-3-methyl-butanoyl]-4-hydroxy-N-[(1S)-1-[4-(4-methylthiazol-5-yl)phenyl]ethyl]pyrrolidine-2-carboxamide] gave a Dmax of 20 to 60% and a half-maximal degradation concentration (DC50) of 1000 to 3000 nM.

For `CCc1cccc2cc(O)cc(-c3ncc4c(N5CC6CCC(C5)N6)nc(OC[C@]56CCCN5C[C@H](Oc5cc([C@@H](C(=O)N7C[C@H](O)C[C@H]7C(=O)N[C@@H](C)c7ccc(-c8scnc8C)cc7)C(C)C)on5)CC6)nc4c3F)c12` [Compound 319, (2S,4R)-1-[(2S)-2-[3-[[(6R,8aR)-8a-[[4-(3,8-diazabicyclo[3.2.1]octan-3-yl)-7-(8-ethyl-3-hydroxy-1-naphthyl)-8-fluoro-pyrido[4,3-d]pyrimidin-2-yl]oxymethyl]-2,3,5,6,7,8-hexahydro-1H-indolizin-6-yl]oxy]isoxazol-5-yl]-3-methyl-butanoyl]-4-hydroxy-N-[(1S)-1-[4-(4-methylthiazol-5-yl)phenyl]ethyl]pyrrolidine-2-carboxamide], the maximal degradation (Dmax) fell in the range of 60 to 80% and the half-maximal degradation concentration (DC50) lay within 1000 to 3000 nM.

The compound `Cc1ncsc1-c1ccc([C@H](C)NC(=O)[C@@H]2C[C@@H](O)CN2C(=O)[C@H](c2cc(OC3CN(C(=O)OC[C@@H]4CC[C@@]5(COc6nc(N7CC8CCC(C7)N8)c7cnc(-c8cc(O)cc(Cl)c8C8CC8)c(F)c7n6)CCCN45)C3)no2)C(C)C)cc1` [Compound 322] came in with a Dmax of 60 to 80% and a 50% degradation concentration (DC50) of 600 to 1000 nM.

In turn, `CCc1cccc2cc(O)cc(-c3ncc4c(N5CC6CCC(C5)N6)nc(OC[C@]56CCCN5[C@H](COc5cc([C@H](C(=O)N7C[C@H](O)C[C@H]7C(=O)N[C@@H](C)c7ccc(-c8scnc8C)cc7)C(C)C)on5)CC6)nc4c3F)c12` [Compound 323, (2S,4R)-1-[(2R)-2-(3-{[(3S,7aR)-7a-{[(4-{3,8-diazabicyclo[3.2.1]octan-3-yl}-7-(8-ethyl-3-hydroxynaphthalen-1-yl)-8-fluoropyrido[4,3-d]pyrimidin-2-yl)oxy]methyl}-hexahydro-1H-pyrrolizin-3-yl]methoxy}-1,2-oxazol-5-yl)-3-methylbutanoyl]-4-hydroxy-N-[(1S)-1-[4-(4-methyl-1,3-thiazol-5-yl)phenyl]ethyl]pyrrolidine-2-carboxamide] returned a maximal degradation (Dmax) of 60 to 80%.

`CCc1cccc2cc(O)cc(-c3ncc4c(N5CC6CCC(C5)N6)nc(OC[C@]56CCCN5[C@H](COc5cc([C@@H](C(=O)N7C[C@H](O)C[C@H]7C(=O)N[C@@H](C)c7ccc(-c8scnc8C)cc7)C(C)C)on5)CC6)nc4c3F)c12` [Compound 324, (2S,4R)-1-[(2S)-2-(3-{[(3S,7aR)-7a-{[(4-{3,8-diazabicyclo[3.2.1]octan-3-yl}-7-(8-ethyl-3-hydroxynaphthalen-1-yl)-8-fluoropyrido[4,3-d]pyrimidin-2-yl)oxy]methyl}-hexahydro-1H-pyrrolizin-3-yl]methoxy}-1,2-oxazol-5-yl)-3-methylbutanoyl]-4-hydroxy-N-[(1S)-1-[4-(4-methyl-1,3-thiazol-5-yl)phenyl]ethyl]pyrrolidine-2-carboxamide] had a Dmax of 80 to 100%.

Turning to `CCc1cccc2cc(O)cc(-c3ncc4c(N5CC6CCC(C5)N6)nc(OC[C@@]56CCCN5[C@H](COC(=O)N5CCN(c7cc([C@H](C(=O)N8C[C@H](O)C[C@H]8C(=O)N[C@@H](C)c8ccc(-c9scnc9C)cc8)C(C)C)on7)C[C@@H]5C)CC6)nc4c3F)c12` [Compound 325, [(3S,8S)-8-[[4-(3,8-diazabicyclo[3.2.1]octan-3-yl)-7-(8-ethyl-3-hydroxy-1-naphthyl)-8-fluoro-pyrido[4,3-d]pyrimidin-2-yl]oxymethyl]-1,2,3,5,6,7-hexahydropyrrolizin-3-yl]methyl (2S)-4-[5-[(1R)-1-[(2S,4R)-4-hydroxy-2-[[(1S)-1-[4-(4-methylthiazol-5-yl)phenyl]ethyl]carbamoyl]pyrrolidine-1-carbonyl]-isobutyl]isoxazol-3-yl]-2-methyl-piperazine-1-carboxylate], the maximal degradation (Dmax) lay within 80 to 100% and the half-maximal degradation concentration (DC50) is < 600 nM.

Regarding `CCc1cccc2cc(O)cc(-c3ncc4c(N5CC6CCC(C5)N6)nc(OC[C@@]56CCCN5[C@H](COC(=O)N5CCN(c7cc([C@@H](C(=O)N8C[C@H](O)C[C@H]8C(=O)N[C@@H](C)c8ccc(-c9scnc9C)cc8)C(C)C)on7)C[C@@H]5C)CC6)nc4c3F)c12` [Compound 326, [(3S,8S)-8-[[4-(3,8-diazabicyclo[3.2.1]octan-3-yl)-7-(8-ethyl-3-hydroxy-1-naphthyl)-8-fluoro-pyrido[4,3-d]pyrimidin-2-yl]oxymethyl]-1,2,3,5,6,7-hexahydropyrrolizin-3-yl]methyl (2S)-4-[5-[(1S)-1-[(2S,4R)-4-hydroxy-2-[[(1S)-1-[4-(4-methylthiazol-5-yl)phenyl]ethyl]carbamoyl]pyrrolidine-1-carbonyl]-isobutyl]isoxazol-3-yl]-2-methyl-piperazine-1-carboxylate], the Dmax was < 20% and the DC50 is < 600 nM.

On to `CCc1cccc2cc(O)cc(-c3ncc4c(N5CC6CCC(C5)N6)nc(OC[C@@]56CCCN5[C@H](COC(=O)N5CCN(c7cc([C@H](C(=O)N8C[C@H](O)C[C@H]8C(=O)N[C@@H](C)c8ccc(-c9scnc9C)cc8)C(C)C)on7)[C@H](C)C5)CC6)nc4c3F)c12` [Compound 327, [(3S,8S)-8-[[4-(3,8-diazabicyclo[3.2.1]octan-3-yl)-7-(8-ethyl-3-hydroxy-1-naphthyl)-8-fluoro-pyrido[4,3-d]pyrimidin-2-yl]oxymethyl]-1,2,3,5,6,7-hexahydropyrrolizin-3-yl]methyl (3R)-4-[5-[(1R)-1-[(2S,4R)-4-hydroxy-2-[[(1S)-1-[4-(4-methylthiazol-5-yl)phenyl]ethyl]carbamoyl]pyrrolidine-1-carbonyl]-isobutyl]isoxazol-3-yl]-3-methyl-piperazine-1-carboxylate], for which the Dmax fell in the range of 80 to 100% and the DC50 is < 600 nM.

On to `CCc1cccc2cc(O)cc(-c3ncc4c(N5CC6CCC(C5)N6)nc(OCCN5CCC(COCC(=O)N[C@H](C(=O)N6C[C@H](O)C[C@H]6C(=O)N[C@@H](C)c6ccc(-c7scnc7C)c(Cl)c6)C(C)(C)C)CC5)nc4c3F)c12` [Compound 332, (2S,4R)—N-[(1S)-1-[3-chloro-4-(4-methyl-1,3-thiazol-5-yl)phenyl]ethyl]-1-[(2S)-2-{2-[(1-{2-[(4-{3,8-diazabicyclo[3.2.1]octan-3-yl}-7-(8-ethyl-3-hydroxynaphthalen-1-yl)-8-fluoropyrido[4,3-d]pyrimidin-2-yl)oxy]ethyl}piperidin-4-yl)methoxy]acetamido}-3,3-dimethylbutanoyl]-4-hydroxypyrrolidine-2-carboxamide], for which the maximal degradation (Dmax) was in the range of 80 to 100% and the 50% degradation concentration (DC50) was 600 to 1000 nM.
